Assay results published in US20220265656A1, “COMBINATION THERAPIES WITH IRE1 SMALL MOLECULE INHIBITORS” (Cornell University, priority 2019, published 2022).
Structures can show the parent of a compound that is named as a salt.

Assays:
IRE1a [1] = target: T1, IRE1a (Homo sapiens, UniProt O75460); experiment: IRE1a Endoribonuclease Nanoluciferase Assay in 293T cells; type: cell-based; parameters: endogenous in cells; host or cells: 293T cells; conditions: XBP1 luciferase reporter in 293T cells, ER stressor
Protocol: Compounds disclosed herein were assessed for disruption of IRE1 signaling using a IRE1a Endoribonuclease Nanoluciferase Assay. Briefly, 2.5×10^6 293T cells were seeded in a 10 cm^2 tissue culture plate. About 24 hours later, the cells were transfected with Effectene. In a 15 mL tube, the following was added: 2 ug XBP1 luciferase reporter plasmid (PGK-Luc2-P2A-XBP1u-Nanoluciferase-PEST); 300 ul EC buffer; and 16 ul Enhancer, followed by incubation at room temp for 5 minutes. Next, 60 ul Effectene (Qiagen 301427) was added, followed by incubation at room temperature for 10 minutes, 2.6 mL cDMEM media was added. Old media was aspirated from the cells, followed by addition of 7 mL fresh media. Full transfection mixture was added dropwise to cells. Cells were incubated for 6 hours, followed by trypsinization, centrifugation and resuspension in 11 mL fresh cDMEM media, 100 uL of cells were plated per a well in a 96 well plate. A day later, ER stressors of choice +/−inhibitors were added. To harvest, media was aspirated from cells completely, then 50 uL 1× passive lysis buffer (Promega: E1941) was added per well and put on shaker (300 rpm) for 30 minutes at room temperature. Cells were centrifuged, and 15 uL sample per well was added to a new, opaque white 384 well plate (Corning 3570), 15 uL OneGlo (nanoluciferase kit, Promega N1630) was added. Plates were spun down, placed on shaker (300 rpm) for 10 minutes. Plates were read on luminometer, 1000 ms integration time per well, 15 uL Stop and Glo (nanoluciferase kit) was added. Plates were spun down, placed on shaker (300 rpm) for 10 minutes. Plates were read on luminometer, 1000 ms second integration time per well. Recordings are provided below in Table 4.

IRE1a [2] = target: T1, IRE1a; experiment: In vitro FRET assay (IRE1a cleavage of XBP1 RNA probe); type: biochemical; parameters: purchased SignalChem; conditions: 2 nM IRE1a
Protocol: In vitro FRET assay was performed to evaluate the ability of select compounds to inhibit IRE1, the results of which are summarized in Table 3. To perform the in vitro FRET assay, 1× complete assay buffer (CAB; […], 50 mM sodium citrate pH 7.15, 1 mM magnesium acetate, 0.02% tween 20) was used to dilute SignalChem IRE1a protein to a final concentration of 2 nM. Selected compounds were serially diluted with DMSO in a non-binding black 384-well plate for a total of 15 ul in each well, 2 ul of the serially diluted compound or DMSO control were then added to new wells containing 98 ul of 1×CAB, for a total volume of 100 ul, 10 ul of which were then transferred to wells of a new plate, 5 ul of the diluted IRE1a was then added to each well, 5 ul of a […] XBP1 RNA probe was then added to each well. Fluorescence was then read over 30 minutes in kinetic mode (485/515 nm).
Two RNA probes were used, XBP1 wildtype (SEQ ID NO: 2) which is able to be spliced by active IRE1a or XBP1 mutant (SEQ ID NO: 3) which is unable to be spliced. Each probe contained a 5′ 6-FAM modification and a 3′ IOWA Black FQ modification. […]

T1 sequence (O75460 19-977): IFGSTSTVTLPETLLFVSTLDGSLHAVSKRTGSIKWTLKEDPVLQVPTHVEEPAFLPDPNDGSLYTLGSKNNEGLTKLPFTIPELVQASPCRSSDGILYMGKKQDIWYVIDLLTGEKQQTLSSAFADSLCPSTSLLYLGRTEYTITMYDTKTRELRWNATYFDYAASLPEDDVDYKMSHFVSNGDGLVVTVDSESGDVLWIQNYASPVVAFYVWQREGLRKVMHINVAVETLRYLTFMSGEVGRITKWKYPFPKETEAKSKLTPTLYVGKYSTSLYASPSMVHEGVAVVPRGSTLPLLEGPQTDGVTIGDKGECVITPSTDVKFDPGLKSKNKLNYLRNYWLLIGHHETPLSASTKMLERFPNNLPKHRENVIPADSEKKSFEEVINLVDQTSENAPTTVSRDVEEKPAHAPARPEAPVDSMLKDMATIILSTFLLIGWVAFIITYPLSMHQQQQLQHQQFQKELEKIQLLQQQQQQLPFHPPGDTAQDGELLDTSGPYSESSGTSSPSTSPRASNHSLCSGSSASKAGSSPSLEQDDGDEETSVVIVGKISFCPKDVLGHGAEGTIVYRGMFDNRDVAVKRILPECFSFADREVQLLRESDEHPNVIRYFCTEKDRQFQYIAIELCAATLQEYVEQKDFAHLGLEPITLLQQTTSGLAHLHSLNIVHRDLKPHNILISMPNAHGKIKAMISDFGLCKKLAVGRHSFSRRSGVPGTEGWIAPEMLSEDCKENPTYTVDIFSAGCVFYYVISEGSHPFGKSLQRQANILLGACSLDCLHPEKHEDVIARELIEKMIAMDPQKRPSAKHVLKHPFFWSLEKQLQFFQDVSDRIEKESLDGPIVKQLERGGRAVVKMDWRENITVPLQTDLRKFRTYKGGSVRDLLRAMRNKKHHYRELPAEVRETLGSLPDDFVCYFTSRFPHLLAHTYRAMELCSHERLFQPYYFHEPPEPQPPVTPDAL

Row | SMILES | EC50 (IRE1a [1]) | IC50 (IRE1a [2]) | Mean EC50 (IRE1a [1])
1 | CCc1cc(-c2cc(NS(=O)(=O)c3ccccc3Cl)n[nH]2)cc2cnc(N[C@H]3CC[C@H](N)CC3)nc12 [29; Formic Acid Salt] | 100 to 10000 nM |  | 
2 | CCc1cc(-c2ccc(N(C)S(=O)(=O)c3ccccc3Cl)cc2C)cc2cnc(N[C@H]3CC[C@H](N)CC3)nc12 [31; Formic Acid Salt] |  | 100 to 10000 nM | 
3 | N[C@H]1CC[C@H](Nc2ncc3cc(-c4cc(F)c(NS(=O)(=O)c5ccccc5Cl)cc4F)ccc3n2)CC1 [53; Formic Acid Salt] | ≤ 5 nM | ≤ 5 nM | 
4 | CCc1cc(-c2ccc(NS(=O)(=O)c3ccccc3Cl)nn2)cc2cnc(N[C@H]3CC[C@H](NC)CC3)nc12 [61; Formic Acid Salt] | ≤ 5 nM | ≤ 5 nM | 
5 | CCc1cc(-c2ccc(NS(=O)(=O)c3ccccc3Cl)nn2)cc2cnc(N[C@H]3CC[C@H](N(C)C)CC3)nc12 [64; Formic Acid Salt] | ≤ 5 nM | ≤ 5 nM | 
6 | CCc1cc(-c2ccc(NS(=O)(=O)c3ccccc3Cl)c(F)c2)cc2cnc(N[C@@H]3CCC[C@H](N)C3)nc12 [72; Formic Acid Salt] | 100 to 10000 nM |  | 
7 | N[C@H]1CCC[C@@H](Nc2ncc3cc(-c4ccc(NS(=O)(=O)c5ccccc5Cl)c(F)c4)ccc3n2)C1 [75; Formic Acid Salt] | 100 to 10000 nM | ≤ 5 nM | 
8 | N[C@H]1CC[C@@H](Nc2ncc3cc(-c4ccc(NS(=O)(=O)c5ccccc5Cl)c(F)c4)ccc3n2)C1 [80; Formic Acid Salt] | 100 to 10000 nM |  | 
9 | CCc1cc(-c2ccc(NS(=O)(=O)c3ccccc3Cl)c(F)c2)cc2cnc(N[C@H]3CC[C@H](N4CCCC4)CC3)nc12.O=CO [88; Formic Acid Salt] |  |  | ,
10 | N[C@H]1CC[C@H](Nc2ncc3cc(-c4nnc(NS(=O)(=O)c5ccccc5Cl)s4)ccc3n2)CC1 [89; Formic Acid Salt] | 100 to 10000 nM |  | 
11 | CCc1cc(-c2cnc(NS(=O)(=O)c3ccccc3Cl)cc2OC)cc2cnc(N[C@H]3CC[C@H](N)CC3)nc12 [92; Formic Acid Salt] | 100 to 10000 nM |  | 
12 | CCc1cc(-c2cnc(NS(=O)(=O)c3ccccc3Cl)c(F)c2)cc2cnc(N[C@H]3CC[C@H](N(C)C)CC3)nc12 [95; Formic Acid Salt] | ≤ 5 nM | ≤ 5 nM | 
13 | CCc1cc(-c2ccc(NS(=O)(=O)c3ccccc3Cl)nc2OC)cc2cnc(N[C@H]3CC[C@H](N(C)C)CC3)nc12 [99; Formic Acid Salt] | ≤ 5 nM | ≤ 5 nM | 
14 | CCc1nc(NS(=O)(=O)c2ccccc2Cl)ccc1-c1cc(CC)c2nc(N[C@H]3CC[C@H](N(C)C)CC3)ncc2c1 [117; Formic Acid Salt] | ≤ 5 nM | ≤ 5 nM | 
15 | CCc1cc(-c2ccc(NS(=O)(=O)c3ccccc3C)nc2OC)cc2cnc(N[C@H]3CC[C@H](N(C)C)CC3)nc12 [119; Formic Acid Salt] | ≤ 5 nM | ≤ 5 nM | 
16 | CCc1cc(-c2ccc(NS(=O)(=O)c3ccccc3Cl)nc2C)cc2cnc(N[C@H]3CC[C@H](N(C)CC(F)(F)F)CC3)nc12 [126; Formic Acid Salt] |  | 50 to 100 nM | 
17 | CCc1cc(-c2cc(F)c(NS(=O)(=O)c3ccccc3Cl)nc2OC)cc2cnc(N[C@H]3CC[C@H](NC)CC3)nc12 [127; Formic Acid Salt] | ≤ 5 nM | ≤ 5 nM | 
18 | CCc1cc(-c2cc(F)c(NS(=O)(=O)c3ccccc3Cl)nc2OC)cc2cnc(N[C@H]3CC[C@H](N(C)C)CC3)nc12 [128; Formic Acid Salt] | ≤ 5 nM | ≤ 5 nM | 
19 | CCc1cc(-c2ccc(NS(=O)(=O)c3ccccc3Cl)nc2C)cc2cnc(N[C@H]3CC[C@H](N(C)CC4CCC4)CC3)nc12 [130; Formic Acid Salt] | ≤ 5 nM | ≤ 5 nM | 
20 | Cc1nc(NS(=O)(=O)c2ccccc2Cl)ccc1-c1cc(C(C)(F)F)c2nc(N[C@H]3CC[C@H](N(C)C)CC3)ncc2c1 [131; Formic Acid Salt] | ≤ 5 nM | ≤ 5 nM | 
21 | CCc1cc(-c2ccc(NS(=O)(=O)c3ccccc3Cl)nc2C)cc2cnc(N[C@H]3CC[C@H](N(C)CCOC)CC3)nc12 [132; Formic Acid Salt] | ≤ 5 nM | ≤ 5 nM | 

Row | SMILES | EC50 (IRE1a [1]) | IC50 (IRE1a [2]) | Mean EC50 (IRE1a [1])
22 | COc1nc(NS(=O)(=O)c2ccccc2Cl)ccc1-c1cc(C)c2nc(N[C@H]3CC[C@H](N(C)C)CC3)ncc2c1 [133; Formic Acid Salt] | ≤ 5 nM | ≤ 5 nM | 
23 | COc1nc(NS(=O)(=O)c2ccccc2Cl)ccc1-c1cc(C(F)(F)F)c2nc(N[C@H]3CC[C@H](N(C)C)CC3)ncc2c1 [135; Formic Acid Salt] | ≤ 5 nM | ≤ 5 nM | 
24 | COCc1cc(-c2ccc(NS(=O)(=O)c3ccccc3Cl)nc2OC)cc2cnc(N[C@H]3CC[C@H](N(C)C)CC3)nc12 [137; Formic Acid Salt] | ≤ 5 nM | ≤ 5 nM | 
25 | COc1nc(NS(=O)(=O)c2ccccc2Cl)ccc1-c1cc(C)c2nc(N[C@H]3CC[C@@H](N(C)C)CC3)ncc2c1 [139; Formic Acid Salt] |  | 5 to 50 nM | 
26 | CCc1cc(-c2ccc(NS(=O)(=O)c3ccccc3Cl)nc2OC)cc2cnc(N[C@H]3CC[C@@H](N(C)C)CC3)nc12 [141; Formic Acid Salt] | 100 to 10000 nM | ≤ 5 nM | 
27 | CCc1cc(-c2cc(F)c(NS(=O)(=O)c3ccccc3Cl)nc2OC)cc2cnc(N[C@H]3CC[C@@H](N(C)C)CC3)nc12 [142; Formic Acid Salt] |  | 5 to 50 nM | 
28 | CCc1cc(-c2ccc(NS(=O)(=O)c3ccccc3Cl)nc2OC)cc2cnc(N[C@H]3CC[C@@](C)(N(C)C)CC3)nc12 [143; Formic Acid Salt] |  | 5 to 50 nM | 
29 | COc1nc(NS(=O)(=O)c2ccccc2Cl)c(F)cc1-c1cc(C)c2nc(N[C@H]3CC[C@H](N(C)C)CC3)ncc2c1 [145; Formic Acid Salt] | ≤ 5 nM | ≤ 5 nM | 
30 | COc1nc(NS(=O)(=O)c2ccccc2Cl)c(F)cc1-c1cc(C)c2nc(N[C@H]3CC[C@@H](N(C)C)CC3)ncc2c1 [147; Formic Acid Salt] |  | 5 to 50 nM | 
31 | COc1nc(NS(=O)(=O)c2ccccc2Cl)ccc1-c1cc(F)c2nc(N[C@H]3CC[C@H](N(C)C)CC3)ncc2c1 [148; Formic Acid Salt] | ≤ 5 nM | ≤ 5 nM | 
32 | COc1nc(NS(=O)(=O)c2ccccc2Cl)c(F)cc1-c1ccc2nc(N[C@H]3CC[C@H](N(C)C)CC3)ncc2c1 [149; Formic Acid Salt] | 5 to 50 nM | ≤ 5 nM | 
33 | CN[C@H]1CC[C@H](Nc2ncc3cc(-c4cc(F)c(NS(=O)(=O)c5ccccc5Cl)nc4OC)ccc3n2)CC1 [150; Formic Acid Salt] | 5 to 50 nM | ≤ 5 nM | 
34 | CCc1cc(-c2ccc(NS(=O)(=O)c3ccccc3Cl)nc2C)cc2cnc(N[C@H]3CC[C@H](N(C)C)C[C@@H]3F)nc12 [151; Formic Acid Salt] | ≤ 5 nM | ≤ 5 nM | 
35 | CCc1cc(-c2ccc(NS(=O)(=O)c3cccc(Cl)c3Cl)nc2C)cc2cnc(N[C@H]3CC[C@H](N(C)C)CC3)nc12 [152; Formic Acid Salt] | ≤ 5 nM | ≤ 5 nM | 
36 | Cc1nc(NS(=O)(=O)c2ccccc2Cl)c(F)cc1-c1ccc2nc(N[C@H]3CC[C@H](N(C)C)CC3)ncc2c1 [153; Formic Acid Salt] | 5 to 50 nM | ≤ 5 nM | 
37 | CCc1cc(-c2cnc(NS(=O)(=O)c3ccccc3Cl)nc2OC)cc2cnc(N[C@H]3CC[C@H](N(C)C)CC3)nc12 [154; Formic Acid Salt] | ≤ 5 nM | ≤ 5 nM | 
38 | COc1nc(NS(=O)(=O)c2ccccc2Cl)c(F)cc1-c1cc(F)c2nc(N[C@H]3CC[C@H](N(C)C)CC3)ncc2c1 [155; Formic Acid Salt] | 50 to 100 nM | ≤ 5 nM | 
39 | Cc1nc(NS(=O)(=O)c2ccccc2Cl)c(F)cc1-c1cc(F)c2nc(N[C@H]3CC[C@H](N(C)C)CC3)ncc2c1 [156; Formic Acid Salt] |  | 100 to 10000 nM | 
40 | CCc1cc(-c2ccc(NS(=O)(=O)c3cccc(F)c3Cl)nc2C)cc2cnc(N[C@H]3CC[C@H](N(C)C)CC3)nc12 [158; Formic Acid Salt] | ≤ 5 nM | ≤ 5 nM | 
41 | CCc1cc(-c2nnc(NS(=O)(=O)c3ccccc3Cl)cc2OC)cc2cnc(N[C@H]3CC[C@H](N(C)C)CC3)nc12 [159; Formic Acid Salt] | 5 to 50 nM | ≤ 5 nM | 
